Source: patent US10512624B2, “Long-chain amphipathic dicarboxylic acids for treatment of diabetes type-1” (Syndromex Ltd., priority 2016, dated 2019)

Columns and labels:
[1] = test system: adipose adenylate cyclase; conditions: cited from earlier work
[2] = test system: T1D patients; conditions: insulin-treated (>1 u/kg body weight/day) T1D patients, meta-analysis (ref 12); cited from earlier work
[3] = test system: STZ diabetic rat model, NOD mouse model; conditions: cited from earlier work
[4] = test system: STZ diabetic rats; experiment: Anti-diabetic efficacy in streptozotocin (STZ) diabetic rats (FBG, IPGTT, IPITT, fluid balance, insulin/glucagon content); format: in vivo, rat; conditions: sub-therapeutic insulin NPH 3 u/kg b.i.d alone, STZ diabetic rats
Procedure: Male Sprague-Dawley (SD) rats weighing 250-275 gr were fed ad libitum (Harlan Teklad 2018), had free access to water, and were kept on a 12:12 h light:dark cycle. Experimental type 1 diabetes (T1D) was induced in overnight fasted rats by a single intra-peritoneal injection of streptozotocin (STZ, 60 mg/kg body weight, Sigma Aldrich) freshly prepared in 0.1 M of cold citrate buffer (pH 4.5), followed by oral 10% glucose solution for the next 24 hours to overcome STZ-induced acute hypoglycemia. STZ diabetic rats (defined as having a fasting blood glucose (FBG) level higher than 300 mg/dl) were selected for further studies.
SHAM (control) rats were injected with 0.1 M of cold citrate buffer (pH 4.5). STZ diabetic or SHAM rats were dosed twice daily by gavage (orally) with 1% CMC (Sigma Aldrich C5678), or with HOOC—C(CH3)2—(CH2)12—C(CH3)2—COOH (2,2,15,15-tetramethylhexadecane-1,16-dioic acid) also termed herein “MEDICA16αα”, “Medica16αα” or M16αα(15 mg/kg body weight) suspended in 1% CMC, or injected intraperitoneal (i.p.) with Neutral Protamine Hagedorn (NPH) insulin (3 u/kg body weight b.i.d), as indicated.
(§1) Administering a combination of Medica16αα and insulin was performed by treating STZ diabetic rats (FBG >300 mg/dl) with oral MEDICA16αα(15 mg/kg b.i.d) for five consecutive days, then MEDICA16αα-responsive rats were further treated with MEDICA16αα(15 mg/kg b.i.d) for 10 additional consecutive days (“STZ/MEDICA Res”), and MEDICA16αα non-responsive rats (FBG >250 mg/dl) were further treated for 10 additional consecutive days with either insulin Neutral Protamine Hagedorn (NPH) (3 u/kg b.i.d subcutaneously) (“STZ/NPH”), or with insulin NPH (3 u/kg b.i.d subcutaneously in combination with oral MEDICA16αα(15 mg/kg b.i.d) (“STZ/MEDICA NPH”).
Tail vein FBG was verified daily by a glucometer (Glucometer®, Accu-Check® Performa, Roche Diagnostics). Urine secretion, food and water consumption were measured in standard metabolic cages (Tecniplast™ Metabolic Cage Systems for Rodents) for 48 hour periods. Samples were collected and recorded every 12 hour.
Overnight fasted rats were injected i.p (1 gr glucose/kg bw) with 20% dextrose solution (Teva Medical). Tail vein blood was sampled on 0, 30, 60, 90 and 120 minutes following glucose injection.
Fasted rats (5 hours fast) were injected i.p (2 u/kg bw) with HumulinR insulin (Eli Lilly). Tail blood glucose levels were measured by glucometer at 0, 15, 30, 60, and 120 min following insulin injection.
(§2) Pancreas and plasma insulin and glucagon content were determined by insulin (Millipore, Cat #RI-13K) and glucagon (Millipore, Cat # GL-32K) radioimmunoassay (RIA) kits. cAMP levels were measured by cAMP kit (Arbor Assays, DetectX Cat # K019-H1).

[5] = test system: hepatic gluconeogenesis; experiment: Suppression of hepatic gluconeogenesis in STZ diabetic rats (RT-PCR, Western blot, cAMP kit); format: in vivo, rat
Procedure: as §1
Sampled frozen tissue was homogenized (Polytron) in lysis buffer (50 mM Tris HCl, pH 8.0, 1% Triton X-100, 1 mM EGTA, 1 mM EDTA, 150 mM NaCl, 5 mM NaPPi, 50 mM NaF, 1 mM PMSF, 1 mM Na Vanadate, 40 nM bpVfan and protease inhibitor cocktail (Sigma)), and centrifuged for 15 min at 12,500 rpm.
Protein lysates were prepared in sodium dodecyl sulfate (SDS) sample buffer (62 mM Tris (pH 6.8), 2.3% SDS, […] mercaptoethanol, 10% glycerol), and were subjected to SDS-PAGE, electro-transferred onto cellulose nitrate membranes (Schleicher & Schuell) and probed with the indicated first antibody, followed by HRP-labeled second antibody. Protein concentration was determined by BCA (Thermo Scientific). Bands were detected by ECL, and the intensity of individual bands was determined by densitometry using ImageJ 1.48 v software.
Sampled frozen tissue was homogenized (Polytron) in lysis buffer (50 mM Hepes (pH 7.4), 150 mM NaCl, 10% Glycerol, 1.5 mM MgCl2, 1 mM EGTA, 1% Triton, 50 mM β-glycerolphosphate, 25 mM NaF, 1 mM Na-vanadate, 40 nM bpVphen, protease inhibitor mix (Sigma) and 17.5 mg/ml octyl beta-D-glucopyranoside (Sigma)). Lysates were kept on ice for 30 min and centrifuged at 12000 rpm for 15 min. Lysates ([…]) were incubated for 4 h with protein A/G beads (Santa Cruz Biotechnology) pre-loaded with the indicated antibody. The immune-precipitate was rinsed 3 times with washing buffer (20 mM Hepes (pH 7.4), 150 mM NaCl, 0.1% Tx-100, 10% glycerol), re-suspended in SDS sample buffer, boiled for 8 min, and analyzed by SDS-PAGE.
Total RNA was prepared using the TRI reagent (Sigma Aldrich). First-strand cDNA used as template was synthesized by reverse transcription using oligo(dT) as primer and the Reverse-iTMAX First Strand Kit (ABgene, Epson). Glucose-6-phosphatase (G6Pase) and phosphoenolpyruvate carboxykinase (PEPCK) transcripts normalized by tubulin were quantified by real-time PCR (Rotor Gene RG-3000A) using SYBER green MasterMix (Absolute Syber Green ROX Mix, ABgene) and the following primers: […]
as §2

Molecule: CC(C)(CCCCCCCCCCC(C)(C)CC(=O)O)CC(=O)O [MEDICA16ββ, 3,3,14,14-tetramethylhexadecane-1,16-dioic acid]
- adipose adenylate cyclase [1]: inhibit

Molecule: CN(C)C(=N)N=C(N)N [metformin]
- reduction in daily insulin usage [2]: 1.4 u/d
- normalizing STZ-induced diabetes, or preventing or delaying autoimmune T1D in NOD mouse [3]: ineffective or only marginally effective

Molecule: insulin NPH: Neutral Protamine Hagedorn (NPH) insulin, intermediate-acting insulin, used at sub-therapeutic dose 3 u/kg b.i.d
- controlling glycemia (FBG, IPGTT, IPITT, fluid balance) [4]: without any effect
- hepatic phospho-CREB(Ser179) [5]: ineffective
- hepatic phospho-CRTC2(Ser171) [5]: not
- hepatic glucose-6-phosphatase and PEPCK transcripts ([5]; compared with STZ/CMC and SHAM/CMC): essentially unaffected
